Read-outs that look alike come from different tables or passages of the source.

In assay [1] the test system is yeast protoplasts. Nature of the assay: Endocytosis study: yeast protoplasts incubated with dye-bound liposomes, confocal and transmission electron microscopy. The class given is cell-based, Saccharomyces cerevisiae (YNN 281). The conditions noted are these: dye incubated alone with the formed protoplasts, unencapsulated. The procedure: An 0.8 ml aliquot of protoplast suspension was dispensed through a large orifice pipette tip (ensuring minimal disturbance of the fragile protoplast) into a sterilised eppendoff tube to which was added 0.8 ml of the liposome suspension obtained from the gel filtration. Both solutions were of equivalent densities to ensure the stability of the protoplast and gently mixed prior to incubation. The tubes were individually wrapped in foil and embedded on their side in a sheet of Styrofoam which was also wrapped in foil to ensure the tubes would remain in place and then immersed into a water bath a 37° C. for the 90 minute incubation.
A 20 ul sample of the incubated suspension was applied to a microscope slide with the edges of the cover slip sealed with an acrylic resin to inhibit drying out of the sample. The slides once made were stored in the dark to reduce the risk of a loss in fluorescence of the FITC conjugate and viewed immediately under phase contrast and fluorescence using the confocal microscope.
The technique used for preparing sections of block-mounted cells for image analysis required 0.5 ml of the protoplast-liposome suspension to be fixed with 50 ul of 1.25% (v/v) glutaraldehyde and 1.0% (w/v) paraformaldehyde in a 0.2M cacodylate buffer at pH 7.2 for 1 hour. The fixed suspension was then mixed with a similar volume of 5.0% agarose and placed at 4° C. for 20 minutes to set. […]

The subject of assay [2] is yeast protoplasts. How it is done: To ensure the competent nature of the formed protoplast to undertake endocytosis, the yeast cells were grown on a modified YEPD media in which the 2% (w/v) dextrose was replaced by 4% (w/v) sucrose as the carbon source to facilitate a mechanism for the absorption and transport of the sucrose C14 by the yeast cells. Protoplasts were formed as described above and isolated again utilising a sorbitol based density gradient. Silicon oil isolation of protoplasts is a convenient method for separating radio labelled cells from a sugar gradient solution. […] Seven micro tubes (400 ul) were prepared for pelletising the protoplasts with each containing 10 ul of Fluorinert FC 77 as a capture solution and 100 ul of Silicon Oil AR 200 (Density of 1.05 g/1) as the media to be used for the separation of sucrose C14 protoplasts. In the experiment 40 ul of a 1M sucrose (made in a 50 ml volumetric flask) was used to which was added 2 ul of the sucrose C14 stock. Then 1.2 ml of the protoplast suspension was placed into a 1.5 ml eppendoff tube and 12 ul of the 1M sucrose C14 solution was placed in the cap. The incubation time started when the cap was sealed onto the eppendoff tube. Next, 100 ul aliquots of the protoplasts were taken at 10 minute intervals and placed sequentially into a series of the prepared 400 ul tubes containing the silicon oil gradients and spun at 7000 rpm for 10 second. The tubes were removed at each time interval and cut through the upper silicon oil fraction to capture the formed protoplast pellet and resuspended in 100 ul of Milli Q water in a scintillation tube containing 3 ml of scintillation fluid. As a standard, 100 ul volumes of the 1M sucrose containing the sucrose C14 were taken for counting but not spun through the silicon oil as were the protoplasts without the isotope but these spun through the silicon oil and counted to avoid quenching correction of the protoplast extract.
A graph of time vs. counts, recorded as nmoles of absorbed sucrose was then prepared to confirm the uptake of our sucrose isotope by the competent protoplasts.
Standards were prepared and measured for background scintillation without the added isotope and 100 ul of a 1M sucrose standard continuing the isotope was measured to obtain counts for a 1 umole solution of sucrose.

As to “fluorescein isothiocyanate dextran [formula 13]”, in the assay on yeast protoplasts [1], the “passive migration across the plasma membrane of protoplasts (false positive)” value is recorded as “eliminated this situation”.

Turning to `O[14CH2]C1OC(O[C@@]2([14CH2]O)OC([14CH2]O)C(O)C2O)C(O)C(O)C1O` (stereo partly drawn) [I-Sucrose 14 C, I-sucrose-ul-14C], the “I-Sucrose 14 C uptake” value in the assay with yeast protoplasts [2] (time 1 min) amounted to 1.87 nmol; with yeast protoplasts [2] (time 10 min) it was 6.62 nmol; in the assay on yeast protoplasts [2] (time 20 min), 13.4 nmol; in the assay on yeast protoplasts [2] (time 30 min), 17.9 nmol; in the assay with yeast protoplasts [2] (time 40 min) it was 26.6 nmol; in the assay on yeast protoplasts [2] (time 50 min), 35.9 nmol. For the same molecule, in the assay with yeast protoplasts [2] (time 60 min), the “I-Sucrose 14 C uptake” value turned out to be 56.9 nmol.

Take `O=C(O)CN(CC(=O)O)Cc1cc2c(cc1O)Oc1cc(O)c(CN(CC(=O)O)CC(=O)O)cc1C21OC(=O)c2ccccc21` [calcein]: in the assay on yeast protoplasts [1], the “passive migration across the plasma membrane of protoplasts (false positive)” value is given as “some passive migration of this molecule across the plasma membrane”.

For the origin of these results see US20040147028A1, “Yeast treatment” (priority 2002, published 2004).
